Target: human factor Xa (Homo sapiens, UniProt P00742)
Experiment: Factor Xa assay (chromogenic, substrate S-2765)

human factor Xa, sequence (P00742 235-488 limits assumed): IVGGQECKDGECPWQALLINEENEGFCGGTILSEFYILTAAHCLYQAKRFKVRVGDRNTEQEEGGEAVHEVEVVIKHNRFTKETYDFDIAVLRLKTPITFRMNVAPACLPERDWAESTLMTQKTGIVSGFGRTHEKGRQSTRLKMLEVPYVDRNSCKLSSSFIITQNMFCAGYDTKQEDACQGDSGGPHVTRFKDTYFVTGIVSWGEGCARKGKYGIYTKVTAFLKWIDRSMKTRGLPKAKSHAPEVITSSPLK
human factor Xa, sequence (P00742 41-179 partner limits assumed): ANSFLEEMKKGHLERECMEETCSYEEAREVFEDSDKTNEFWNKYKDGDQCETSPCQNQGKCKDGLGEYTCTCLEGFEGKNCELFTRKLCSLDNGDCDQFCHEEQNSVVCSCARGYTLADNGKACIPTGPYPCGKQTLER

| Ki | SMILES |
| --- | --- |
| 0.022 µM | CONC(=O)c1ccc2c(c1)c(C(=O)NC1CCN(C(C)C)CC1)nn2Cc1cc(-c2ccc(Cl)s2)on1 [Example 32, 1-[5-(5-Chloro-thiophen-2-yl)-isoxazol-3-ylmethyl]-1H-indazole-3,5-dicarboxylic acid 3-[(1-isopropyl-piperidin-4-yl)-amide]5-(methoxy-amide)] |
| 0.12 µM | O=C(Nc1ccc(C(=O)N2CCCC2)cc1)c1nn(Cc2cc(-c3ccc(Cl)s3)on2)c2ccccc12 [Example 34, 1-[5-(5-Chloro-thiophen-2-yl)-isoxazol-3-ylmethyl]-1H-indazole-3-carboxylic acid [4-(pyrrolidine-1-carbonyl)-phenyl]-amide] |
| 0.53 µM | O=C(Nc1ccc(C(=O)N2CCOCC2)cc1)c1nn(Cc2cc(-c3ccc(Cl)s3)on2)c2ccccc12 [Example 35, 1-[5-(5-Chloro-thiophen-2-yl)-isoxazol-3-ylmethyl]-1H-indazole-3-carboxylic acid [4-(morpholine-4-carbonyl)-phenyl]-amide] |
| 0.21 µM | O=C(c1nn(Cc2cc(-c3ccc(Cl)s3)on2)c2ccccc12)N1CCC(N2CCCC2=O)CC1 [Example 37, 1-(1-{1-[5-(5-Chloro-thiophen-2-yl)-isoxazol-3-ylmethyl]-1H-indazole-3-carbonyl}-piperidin-4-yl)-pyrrolidin-2-one] |
| 0.019 µM | O=C(Nc1ccc(N2CCCC2=O)cc1)c1nn(Cc2cc(-c3ccc(Cl)s3)on2)c2ccccc12 [Example 39, 1-[5-(5-Chloro-thiophen-2-yl)-isoxazol-3-ylmethyl]-1H-indazole-3-carboxylic acid [4-(2-oxo-pyrrolidin-1-yl)-phenyl]-amide] |
| 0.007 µM | CS(=O)(=O)c1ccccc1-c1ccc(NC(=O)c2nn(Cc3cc(-c4ccc(Cl)s4)on3)c3ccccc23)cc1 [Example 41, 1-[5-(5-Chloro-thiophen-2-yl)-isoxazol-3-ylmethyl]-1H-indazole-3-carboxylic acid (2′-methanesulfonyl-biphenyl-4-yl)-amide] |
| 0.73 µM | CC1CC(=O)NN=C1c1ccc(NC(=O)c2nn(Cc3cc(-c4ccc(Cl)s4)on3)c3ccccc23)cc1 (stereo not drawn) [Example 43, 1-[5-(5-Chloro-thiophen-2-yl)-isoxazol-3-ylmethyl]-1H-indazole-3-carboxylic acid [4-(4-methyl-6-oxo-1,4,5,6-tetrahydro-pyridazin-3-yl)-phenyl]-amide] |
| 0.18 µM | O=C(Nc1ccc(-c2c[nH]cn2)cc1)c1nn(Cc2cc(-c3ccc(Cl)s3)on2)c2ccccc12 [Example 45, 1-[5-(5-Chloro-thiophen-2-yl)-isoxazol-3-ylmethyl]-1H-indazole-3-carboxylic acid [4-(1H-imidazol-4-yl)-phenyl]-amide] |
| 0.009 µM | COC(=O)c1ccc2c(c1)c(C(=O)Nc1ccc(N3CCOCC3=O)cc1)nn2Cc1cc(-c2ccc(Cl)s2)on1 [Example 47, 1-[5-(5-Chloro-thiophen-2-yl)-isoxazol-3-ylmethyl]-3-[4-(3-oxo-morpholin-4-yl)-phenylcarbamoyl]-1H-indazole-5-carboxylic acid methyl ester] |
| 0.041 µM | Cc1oc(=O)oc1COC(=O)c1ccc2c(c1)c(C(=O)NC1CCN(C(C)C)CC1)nn2Cc1cc(-c2ccc(Cl)s2)on1 [Example 50, 1-[5-(5-Chloro-thiophen-2-yl)-isoxazol-3-ylmethyl]-3-(1-isopropyl-piperidin-4-ylcarbamoyl)-1H-indazole-5-carboxylic acid 5-methyl-2-oxo-[1,3]dioxol-4-ylmethyl ester] |

More lines, now with the values behind:

| SMILES | Ki |
| --- | --- |
| CC(C)N1CCC(NC(=O)c2nn(Cc3cc(-c4ccc(Cl)s4)on3)c3ccc(C(=O)NCCS(N)(=O)=O)cc23)CC1 [Example 14, 1-[5-(5-Chloro-thiophen-2-yl)-isoxazol-3-ylmethyl]-1H-indazole-3,5-dicarboxylic acid 3-[(1-isopropyl-piperidin-4-yl)-amide]5-[(2-sulfamoyl-ethyl)-amide]] | 0.028 µM |
| CC(C)N1CCC(NC(=O)c2nn(Cc3cc(-c4ccc(Cl)s4)on3)c3ccc(C(=O)NCCN4CCOCC4)cc23)CC1 [Example 15, 1-[5-(5-Chloro-thiophen-2-yl)-isoxazol-3-ylmethyl]-1H-indazole-3,5-dicarboxylic acid 3-[(1-isopropyl-piperidin-4-yl)-amide]5-[(2-morpholin-4-yl-ethyl)-amide]] | 0.046 µM |
| CC(C)N1CCC(NC(=O)c2nn(Cc3cc(-c4ccc(Cl)s4)on3)c3ccc(C(=O)NC[Si](C)(C)C)cc23)CC1 [Example 16, 1-[5-(5-Chloro-thiophen-2-yl)-isoxazol-3-ylmethyl]-1H-indazole-3,5-dicarboxylic acid 3-[(1-isopropyl-piperidin-4-yl)-amide]5-trimethylsilanylmethyl-amide] | 0.054 µM |
| CC(C)N1CCC(NC(=O)c2nn(Cc3cc(-c4ccc(Cl)s4)on3)c3ccc(C(=O)N(CCO)CCO)cc23)CC1 [Example 17, 1-[5-(5-Chloro-thiophen-2-yl)-isoxazol-3-ylmethyl]-1H-indazole-3,5-dicarboxylic acid 5-[bis-(2-hydroxy-ethyl)-amide]3-[(1-isopropyl-piperidin-4-yl)-amide]] | 0.03 µM |
| CC(C)N1CCC(NC(=O)c2nn(Cc3cc(-c4ccc(Cl)s4)on3)c3ccc(C(=O)N(C)CCO)cc23)CC1 [Example 18, 1-[5-(5-Chloro-thiophen-2-yl)-isoxazol-3-ylmethyl]-1H-indazole-3,5-dicarboxylic acid 5-[(2-hydroxy-ethyl)-methyl-amide]3-[(1-isopropyl-piperidin-4-yl)-amide]] | 0.013 µM |
| CCOC(=O)CNC(=O)c1ccc2c(c1)c(C(=O)NC1CCN(C(C)C)CC1)nn2Cc1cc(-c2ccc(Cl)s2)on1 [Example 19, {[1-[5-(5-Chloro-thiophen-2-yl)-isoxazol-3-ylmethyl]-3-(1-isopropyl-piperidin-4-ylcarbamoyl)-1H-indazole-5-carbonyl]-amino}-acetic acid ethyl ester] | 0.026 µM |
| CC(C)N1CCC(NC(=O)c2nn(Cc3cc(-c4ccc(Cl)s4)on3)c3ccc(C(=O)NCC(F)F)cc23)CC1 [Example 20, 1-[5-(5-Chloro-thiophen-2-yl)-isoxazol-3-ylmethyl]-1H-indazole-3,5-dicarboxylic acid 5-[(2,2-difluoro-ethyl)-amide]3-[(1-isopropyl-piperidin-4-yl)-amide]] | 0.047 µM |
| CC(C)N1CCC(NC(=O)c2nn(Cc3cc(-c4ccc(Cl)s4)on3)c3ccc(C(=O)NCC(N)=O)cc23)CC1 [Example 21, 1-[5-(5-Chloro-thiophen-2-yl)-isoxazol-3-ylmethyl]-1H-indazole-3,5-dicarboxylic acid 5-carbamoylmethyl-amide 3-[(1-isopropyl-piperidin-4-yl)-amide]] | 0.033 µM |
| CC(C)N1CCC(NC(=O)c2nn(Cc3cc(-c4ccc(Cl)s4)on3)c3ccc(C(=O)NCCO)cc23)CC1 [Example 22, 1-[5-(5-Chloro-thiophen-2-yl)-isoxazol-3-ylmethyl]-1H-indazole-3,5-dicarboxylic acid 5-[(2-hydroxy-ethyl)-amide]3-[(1-isopropyl-piperidin-4-yl)-amide]] | 0.028 µM |
| CC(C)N1CCC(NC(=O)c2nn(Cc3cc(-c4ccc(Cl)s4)on3)c3ccc(C(=O)NCCN4CCNC4=O)cc23)CC1 [Example 23, 1-[5-(5-Chloro-thiophen-2-yl)-isoxazol-3-ylmethyl]-1H-indazole-3,5-dicarboxylic acid 3-[(1-isopropyl-piperidin-4-yl)-amide]5-{[2-(2-oxo-imidazolidin-1-yl)-ethyl]-amide}] | 0.033 µM |
| CC(C)N1CCC(NC(=O)c2nn(Cc3cc(-c4ccc(Cl)s4)on3)c3ccc(C(=O)NC(C)(CO)CO)cc23)CC1 [Example 24, 1-[5-(5-Chloro-thiophen-2-yl)-isoxazol-3-ylmethyl]-1H-indazole-3,5-dicarboxylic acid 5-[(2-hydroxy-1-hydroxymethyl-1-methyl-ethyl)-amide]3-[(1-isopropyl-piperidin-4-yl)-amide]] | 0.051 µM |
| CC(C)N1CCC(NC(=O)c2nn(Cc3cc(-c4ccc(Cl)s4)on3)c3ccc(C(=O)NCC(=O)O)cc23)CC1 [Example 25, {[1-[5-(5-Chloro-thiophen-2-yl)-isoxazol-3-ylmethyl]-3-(1-isopropyl-piperidin-4-ylcarbamoyl)-1H-indazole-5-carbonyl]-amino}-acetic acid] | 0.014 µM |
| CC(C)N1CCC(NC(=O)c2nn(Cc3cc(-c4ccc(Cl)s4)on3)c3ccc(C(=O)N4CC[C@H]4C(=O)O)cc23)CC1 [Example 26, 1-[1-[5-(5-Chloro-thiophen-2-yl)-isoxazol-3-ylmethyl]-3-(1-isopropyl-piperidin-4-ylcarbamoyl)-1H-indazole-5-carbonyl]-(2S)-azetidine-2-carboxylic acid] | 0.017 µM |
| CC(C)N1CCC(NC(=O)c2nn(Cc3cc(-c4ccc(Cl)s4)on3)c3ccc(C(=O)NCC(F)(F)F)cc23)CC1 [Example 27, 1-[5-(5-Chloro-thiophen-2-yl)-isoxazol-3-ylmethyl]-1H-indazole-3,5-dicarboxylic acid 3-[(1-isopropyl-piperidin-4-yl)-amide]5-[(2,2,2-trifluoro-ethyl)-amide]] | 0.039 µM |
| CC(C)N1CCC(NC(=O)c2nn(Cc3cc(-c4ccc(Cl)s4)on3)c3ccc(C(=O)N(C)CC(=O)O)cc23)CC1 [Example 28, {[1-[5-(5-Chloro-thiophen-2-yl)-isoxazol-3-ylmethyl]-3-(1-isopropyl-piperidin-4-ylcarbamoyl)-1H-indazole-5-carbonyl]-methyl-amino}-acetic acid] | 0.015 µM |
| CC(C)N1CCC(NC(=O)c2nn(Cc3cc(-c4ccc(Cl)s4)on3)c3ccc(C(=O)OCCO)cc23)CC1 [Example 29, 1-[5-(5-Chloro-thiophen-2-yl)-isoxazol-3-ylmethyl]-3-(1-isopropyl-piperidin-4-ylcarbamoyl)-1H-indazole-5-carboxylic acid 2-hydroxy-ethyl ester] | 0.039 µM |
| CC(C)N1CCC(NC(=O)c2nn(Cc3cc(-c4ccc(Cl)s4)on3)c3ccc(C(=O)N4CCCOCC4)cc23)CC1 [Example 30, 1-[5-(5-Chloro-thiophen-2-yl)-isoxazol-3-ylmethyl]-5-([1,4]oxazepane-4-carbonyl)-1H-indazole-3-carboxylic acid (1-isopropyl-piperidin-4-yl)-amide] | 0.012 µM |

— US7365088B2, “Indazole-derivatives as factor Xa inhibitors” (Sanofi-Aventis Deutschland GmbH, priority 2003, dated 2008)
